Measured values from PMC11840605, “Crystallographic and Thermodynamic Evidence of Negative Coupling in the Flavin-Dependent Tryptophan Halogenases AbeH and BorH” (ACS Omega, 2025).
“Also recorded” adds a separate entry of the source.

What was measured:
[1] = molecular target: BorF; settings: read-out: KD, flavin binding to BorF; cited from earlier work
[2] = molecular target: AbeH/Trp (uncultured bacterium, UniProt F6LWA5); test: Isothermal titration calorimetry, FAD into AbeH preincubated with Trp; type: binding, uncultured soil actinomycetes; parameters: n (ITC, Table S3) / DH (ΔH, ITC, Table S3) / -TDS (-TΔS, ITC, Table S3) / DG (ΔG, ITC, Table S3): unit of the concentration uncertain
AbeH/Trp, sequence (F6LWA5 entry or part of it): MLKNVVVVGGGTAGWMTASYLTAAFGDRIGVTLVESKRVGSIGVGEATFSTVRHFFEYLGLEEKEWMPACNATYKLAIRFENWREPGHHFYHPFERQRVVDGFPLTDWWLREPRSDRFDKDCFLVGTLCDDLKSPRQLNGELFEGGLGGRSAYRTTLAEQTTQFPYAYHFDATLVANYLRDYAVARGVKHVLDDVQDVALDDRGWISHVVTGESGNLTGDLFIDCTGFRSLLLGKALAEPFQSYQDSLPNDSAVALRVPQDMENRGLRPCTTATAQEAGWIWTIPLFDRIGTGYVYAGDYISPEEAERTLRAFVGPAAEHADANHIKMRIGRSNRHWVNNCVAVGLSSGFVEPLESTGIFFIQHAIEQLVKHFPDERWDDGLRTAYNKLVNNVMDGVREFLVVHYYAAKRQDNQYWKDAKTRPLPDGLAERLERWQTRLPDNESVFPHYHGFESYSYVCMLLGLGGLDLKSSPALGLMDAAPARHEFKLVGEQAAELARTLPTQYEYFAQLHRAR
Experimental: (§1) ITC experiments were performed using a VP-ITC isothermal titration calorimeter (MicroCal) in 20 mM HEPES pH 7.5, 350 mM NaCl, 1 mM ethylenediamine tetraacetic acid (EDTA) and 15% (v/v) glycerol. Solutions of AbeH, BorH, FAD (Chem-Implex), and Trp (Acros Organics) were prepared in the same buffer and degassed under vacuum at 30 °C for 20 min before loading in the syringe or cell. To analyze formation of binary complexes, AbeH or BorH was placed inside the cell, and ligand (FAD or Trp) was injected. For ternary complex titration, one ligand was preincubated with the macromolecule for 30 min at 30 °C to form binary complexes of AbeH/FAD, AbeH/Trp, BorH/FAD, and BorH/Trp before titrating with the second ligand. To test FADH2 binding to AbeH and BorH, FAD was reduced to FADH2 using sodium dithionite and stored under N2. Formation of FADH2 by sodium dithionite was verified using absorbance and fluorescence spectrophotometry.
ITC experiments were performed with reference power set to 10 μcal/s and Milli-Q water in the reference cell. All experiments were done with a pretitration delay of 20 min, a 5 min interval between injections, and a filter period of 2 s in high feedback gain mode. All experiments were performed at 310 rpm to mix the components in cell and titrant. All other VP-ITC instrumental parameters were set to default settings. Heats of dilution for all titrants were measured by titrating ligand into buffer for binary complex titrations, and by titrating ligand into a solution containing the other ligand but no protein for ternary complex titration.
190 μM FAD (2 μL/1 and 15 μL/29 injections) into 28 μM AbeH preincubated with 16 mM Trp (Figure 4C)
190 μM FAD (2 μL/1 and 15 μL/29 injections) into 28 μM AbeH preincubated with 28 mM Trp (Figure S8)
Titrations were analyzed by manually integrating each injection, subtracting the heat of dilution, and carrying out nonlinear least-squares fit of the calorimetric binding data to a one-site model using Origin 7.0 (Origin Lab). Trp binding experiments were subtracted by point-by-point heat of dilution, and FAD and FADH2 binding experiments were subtracted using the mean heat of the last three injections. For the Trp binding data, n was fixed to 1 based on expected stoichiometry of 1:1 based on FDH crystal structures and as proposed for lower c-value titrations in the literature.[23],[25],[82] The other parameters were not constrained during fitting.

[3] = test system: BorH/Trp; test: Isothermal titration calorimetry, FAD into BorH preincubated with Trp; type: binding, uncultured soil actinomycetes
Experimental: as §1, with “To test FADH2 binding to AbeH and BorH, FAD was reduced to FADH2 using sodium dithionite and stored under N2.” left out
ITC experiments were performed with reference power set to 10 μcal/s and Milli-Q water in the reference cell. […] Heats of dilution for all titrants were measured by titrating ligand into buffer for binary complex titrations, and by titrating ligand into a solution containing the other ligand but no protein for ternary complex titration. […]
Titrations were analyzed by manually integrating each injection, subtracting the heat of dilution, and carrying out nonlinear least-squares fit of the calorimetric binding data to a one-site model using Origin 7.0 (Origin Lab). […]

[4] = molecular target: AbeH (uncultured bacterium, UniProt F6LWA5); type: biochemical, uncultured soil actinomycetes; settings: same reaction conditions
AbeH, sequence (F6LWA5 entry or part of it): as above
Experimental: To test the ability of BorH and AbeH to chlorinate and brominate other substrates, 100 μL reactions containing 5 μM AbeH or BorH, 10 μM of holo-AbeF or holo-BorF, 100 mM NaCl or NaBr, 2.5 mM NADH, and 0.5 mM substrate in HEPES pH 8.0 were incubated for 12 h at 37 °C with shaking at 230 rpm. The reactions were stopped by heating at 95 °C for 5 min and centrifuged at 12,000g for 5 min. Clarified reaction mixtures were analyzed using RP-HPLC on a Kromasil C18 column (100 Å pore size, 4.6 × 250 mm) mounted on a Waters 2695 HPLC. The gradient was as follows: 0–7.5 min, 5–50% B; 7.5–14 min, 50–100%; 14–25 min, 100% B; 25–40 min 100–5% B with flow rate 0.6 mL/min (Solvent A = H2O/CH3CN 95:5, 0.1% TFA; Solvent B = H2O/CH3CN 5/95, 0.1% TFA). Substrates and products were detected by monitoring UV absorbance at the λmax for each substrate. Product peak fractions were analyzed using ESI-MS on a SYNAPT HDMS mass spectrometer in positive ion mode with leucine enkephalin internal standard.

[5] = cell AbeH/Trp (16 (unit uncertain))
[6] = cell AbeH/Trp (28 (unit uncertain))

| SMILES | Kd [1] [nM] | Kd ([2]; Apparent KD, FAD binding to AbeH/Trp, ITC, AbeH preincubated with Trp, depends on the Trp:AbeH molar ratio) [µM] | Heat of binding, titration of FAD into AbeH/Trp, in words ([2]; ITC) | Kd ([2]; KD, FAD into AbeH/Trp, ITC, experiment of Figure 4C, 28 μM AbeH preincubated with 16 mM Trp) [µM] | -TDS (-TΔS, ITC, Table S3) [2, 5] [kcal/mol] | DG (ΔG, ITC, Table S3) [2, 5] [kcal/mol] | DH (ΔH, ITC, Table S3) [2, 5] [kcal/mol] | n (ITC, Table S3) [2, 5] | -TDS (-TΔS, ITC, Table S3) [2, 6] [kcal/mol] | DG (ΔG, ITC, Table S3) [2, 6] [kcal/mol] | DH (ΔH, ITC, Table S3) [2, 6] [kcal/mol] | n (ITC, Table S3) [2, 6] | Binding of FAD to preincubated BorH/Trp by ITC, in words ([3]; 0.63 mM FAD into 10 μM BorH preincubated with 18 mM Trp (95% saturated)) | KD, FAD binding to BorH/Trp, ITC ([3]; BorH preincubated with Trp) | AbeH bromination compared with chlorination of the substrate, in words [4] |
| --- | --- | --- | --- | --- | --- | --- | --- | --- | --- | --- | --- | --- | --- | --- | --- |
| Cc1cc2nc3c(=O)[nH]c(=O)nc-3n(C[C@H](O)[C@H](O)[C@H](O)COP(=O)(O)OP(=O)(O)OC[C@H]3O[C@@H](n4cnc5c(N)ncnc54)[C@H](O)[C@@H]3O)c2cc1C [FAD] | 100 | 6.3 ± 2.4 | endothermic; also recorded: heat being absorbed rather than released | 2.1 | -15.1 | -7.8 | 7.3 ± 0.4 | 0.58 ± 0.02 | -13.1 | -7.2 | 5.9 ± 1.6 | 0.6 ± 0.1 | No binding was observed; also recorded: failed to detect any heat of binding; also recorded: no evidence of binding | no binding | – |
| N[C@@H](Cc1c[nH]c2ccccc12)C(=O)O [Tryptophan, L-tryptophan] | – | – | – | – | – | – | – | – | – | – | – | – | – | – | prefers chlorination over bromination |
